Test results from patent publication US9139532B2, “Pyrazolyl guanidine F1F0-atpase inhibitors and therapeutic uses thereof” (Lycera Corporation, priority 2010, dated 2015).
Like-named read-outs stand apart in the source and are kept apart here.

Columns and labels:
F1F0-ATPase = biological target: T1, F1F0-ATPase (Bos taurus, UniProt P13621); assay: Inhibition of F1F0-ATPase activity in synthesizing ATP; assay type: biochemical; conditions: inhibition of ATP synthesis by F1F0-ATPase; read-out: ATP Syn IC50
T1 construct: from tissue

Ramos cells = assay: Cytotoxicity in Ramos cells; assay type: cell-based; conditions: cytotoxicity in Ramos cells, read-out: Ramos Cell EC50

Row | SMILES | IC50 (F1F0-ATPase) [µM] | EC50 (Ramos cells; Homo sapiens) [µM] | EC50 (Ramos cells) [µM]
1 | O=C(N=C(Nc1cc(-c2cc(F)cc(F)c2)n[nH]1)NC1CCCC1)c1ccc(F)c(F)c1 [Compound A-365] | < 10 | < 10 | –
2 | CC(C)CNC(=NC(=O)c1ccc(F)c(F)c1)Nc1cc(-c2cc(F)cc(F)c2)n[nH]1 [Compound A-364] | < 10 | < 10 | –
3 | CC(C)CN/C(=N/C(=O)c1ccc(C(F)(F)F)cc1)Nc1cc(-c2cc(F)cc(F)c2)n[nH]1 [Compound A-293] | < 10 | – | < 10
4 | CC(C)NC(=NC(=O)c1ccc(F)c(F)c1)Nc1cc(-c2ccc(Cl)cc2)n[nH]1 [Compound A-379] | < 10 | < 10 | –
5 | CC(C)N/C(=N/C(=O)c1ccc(F)c(F)c1)Nc1cc(-c2ccc(F)cc2)n[nH]1 [Compound A-262] | < 10 | – | < 10
6 | O=C(/N=C(/NCC1CCO1)Nc1cc(-c2ccc(F)cc2)n[nH]1)c1ccc(F)cc1 (centres unmarked) [Compound A-270] | < 10 | – | > 10
7 | CC(C)(C)N/C(=N/C(=O)c1cccc(Cl)c1)Nc1cc(-c2cccc(Cl)c2)[nH]n1 [Compound A-129] | < 10 | – | < 10
8 | CCC(C)NC(=NC(=O)c1cccc(C#N)c1)Nc1cc(-c2cc(F)cc(F)c2)n[nH]1 (centres unmarked) [Compound A-313] | < 10 | < 10 | –
9 | CC(C)OCCCN/C(=N/C(=O)c1cccc(C#N)c1)Nc1cc(-c2ccc(Cl)cc2)n[nH]1 [Compound A-301] | < 10 | – | < 10
10 | COc1cccc(C(=O)/N=C(/NCC(C)C)Nc2cc(-c3ccc(Cl)cc3)[nH]n2)c1 [Compound A-169] | < 10 | – | < 10
11 | Cc1ccc(-c2cc(NC(=NC(=O)c3ccc(C(F)(F)F)cc3)NCc3ccc(F)cc3Cl)[nH]n2)cc1F [Compound A-327] | > 10 | > 10 | –
12 | CC(N/C(=N/C(=O)c1ccc(F)cc1)Nc1cc(-c2ccc(F)cc2)n[nH]1)C1CCCO1 (centres unmarked) [Compound A-207] | > 10 | – | > 10
13 | CCOCC(C)NC(=NC(=O)c1cccc(F)c1)Nc1cc(-c2ccc(F)cc2)n[nH]1 (centres unmarked) [Compound A-256] | < 10 | – | < 10
14 | CC(C)CNC(=NC(=O)c1ccc(Cl)cc1)Nc1cc(-c2ccc(F)cc2)n[nH]1 [Compound A-249] | < 10 | < 10 | –
15 | CCOCCCN/C(=N/C(=O)c1ccc(C(F)(F)F)cc1)Nc1cc(-c2cc(F)cc(F)c2)n[nH]1 [Compound A-282] | < 10 | – | < 10
16 | O=C(/N=C(\Nc1cc(-c2ccc(F)cc2)n[nH]1)NC1CCC1)c1ccc(Cl)c(F)c1 [Compound A-222] | < 10 | – | < 10
17 | O=C(N=C(NCc1ccc(F)cc1Cl)Nc1cc(-c2cc(F)cc(F)c2)n[nH]1)c1ccc(C(F)(F)F)cc1 [Compound A-292] | < 10 | < 10 | –
18 | Cc1cc(N/C(=N\C(=O)c2ccc(F)c(F)c2)NC2CCCC2)n[nH]1 [Compound A-188] | < 10 | – | > 10
19 | O=C(/N=C(\Nc1cc(-c2cc(F)cc(F)c2)n[nH]1)NC1COC1)c1ccc(F)c(F)c1 [Compound A-197] | < 10 | – | < 10
20 | CCOCCCN/C(=N/C(=O)c1ccnc(CC)c1)Nc1cc(-c2ccc(F)cc2)[nH]n1 [Compound A-175] | < 10 | – | > 10
21 | CC1(CN/C(=N/C(=O)c2cccc(F)c2)Nc2cc(-c3ccc(F)cc3)n[nH]2)CCCO1 (centres unmarked) [Compound A-201] | < 10 | – | > 10

Row | SMILES | IC50 (F1F0-ATPase) [µM] | EC50 (Ramos cells; Homo sapiens) [µM] | EC50 (Ramos cells) [µM]
22 | Cc1ccc(-c2cc(N/C(=N\C(=O)c3ccc(C(F)(F)F)cc3)NC(C)C(C)C)[nH]n2)cc1F (centres unmarked) [Compound A-333] | < 10 | – | > 10
23 | O=C(/N=C(/NCc1ccc(F)c(Cl)c1)Nc1cc(C(F)(F)F)[nH]n1)c1ccc(C(F)(F)F)cc1 [Compound A-19] | < 10 | < 10 | –
24 | CC(C)OCCN/C(=N/C(=O)c1ccc(F)cc1)Nc1cc(-c2ccc(F)cc2)n[nH]1 [Compound A-271] | < 10 | – | < 10
25 | O=C(/N=C(/NCc1ccccc1C(F)(F)F)Nc1cc(C(F)(F)F)n[nH]1)c1ccc(F)c(F)c1 [Compound A-8] | < 10 | < 10 | –
26 | O=C(/N=C(\Nc1cc(C(F)(F)F)[nH]n1)NC1CCOCC1)c1ccc(Cl)cc1 [Compound A-124] | < 10 | > 10 | –
27 | Cc1ccc(-c2cc(N/C(=N\C(=O)c3ccc(F)c(F)c3)NCC(C)C)[nH]n2)cc1F [Compound A-323] | < 10 | – | < 10
28 | Cc1ccc(-c2cc(N/C(=N\C(=O)c3ccc(F)c(F)c3)Nc3ccc(F)cc3Cl)[nH]n2)cc1F [Compound A-318] | > 10 | – | < 10
29 | CCOCCCN/C(=N/C(=O)c1ccc(F)c(F)c1)Nc1cc(-c2ccc(C)c(F)c2)n[nH]1 [Compound A-281] | < 10 | – | < 10
30 | CC(C)(C)CN/C(=N/C(=O)c1ccc(C(F)(F)F)cc1)Nc1cc(C(F)(F)F)n[nH]1 [Compound A-51] | < 10 | < 10 | –
31 | CC(C)(C)N/C(=N/C(=O)c1ccc(F)cc1)Nc1cc(-c2cccc(Cl)c2)[nH]n1 [Compound A-134] | < 10 | – | < 10
32 | CC(C)N/C(=N/C(=O)c1ccc(Cl)c(F)c1)Nc1cc(-c2cc(F)cc(F)c2)n[nH]1 [Compound A-359] | < 10 | – | < 10
33 | O=C(/N=C(\Nc1cc(C(F)(F)F)n[nH]1)NC1CCC1)c1ccc(F)c(F)c1 [Compound A-99] | < 10 | < 10 | –
34 | CC(C)(C)N/C(=N/C(=O)c1ccc(F)c(F)c1)Nc1cc(-c2ccc(CO)cc2)[nH]n1 [Compound A-159] | < 10 | – | < 10
35 | CC(C)CN/C(=N/C(=O)c1cccc(F)c1)Nc1cc(-c2cc(F)cc(F)c2)n[nH]1 [Compound A-368] | < 10 | – | < 10
36 | O=C(/N=C(/Nc1cc(F)cc(Cl)c1)Nc1cc(-c2ccc(F)cc2)[nH]n1)c1ccc(Cl)c(F)c1 [Compound A-145] | < 10 | – | < 10
37 | CC(C)CN/C(=N/C(=O)c1ccc(C(F)(F)F)cc1)Nc1cc(-c2ccc(Cl)cc2)n[nH]1 [Compound A-240] | < 10 | – | < 10
38 | O=C(/N=C(\Nc1cc(-c2cc(F)cc(F)c2)n[nH]1)NC1CC1)c1ccc(F)c(F)c1 [Compound A-198] | < 10 | – | < 10
39 | CC1(CN/C(=N/C(=O)c2ccc(F)c(F)c2)Nc2cc(-c3ccc(F)cc3)n[nH]2)COC1 [Compound A-200] | < 10 | – | > 10
40 | CC(C)(C)N/C(=N/C(=O)c1ccc(Cl)cc1)Nc1cc(C(F)(F)F)[nH]n1 [Compound A-4] | < 10 | < 10 | –
41 | CC(C)(C)c1cc(N/C(=N\C(=O)c2ccc(Cl)cc2)NCC(F)(F)F)n[nH]1 [Compound A-16] | < 10 | < 10 | –

Continued, in another order:

Row | IC50 (F1F0-ATPase) [µM] | SMILES | EC50 (Ramos cells; Homo sapiens) [µM] | EC50 (Ramos cells) [µM]
42 | < 10 | CC(C)CN/C(=N/C(=O)c1ccc(F)cc1)Nc1cc(-c2ccc(F)cc2)[nH]n1 [Compound A-513] | – | < 10
43 | < 10 | Cc1ccc(C(=O)/N=C(\Nc2cc(-c3ccc(F)cc3)[nH]n2)NC(C)(C)C)cc1F [Compound A-554] | – | < 10
44 | < 10 | CC(C)(C)N/C(=N/C(=O)c1cccc(F)c1)Nc1cc(-c2cccc(Cl)c2)n[nH]1 [Compound A-438] | – | < 10
45 | < 10 | CC(C)(C)N/C(=N/C(=O)c1ccc(C#N)cc1)Nc1cc(-c2ccc(F)cc2)[nH]n1 [Compound A-529] | – | > 10
46 | < 10 | O=C(N=C(Nc1cc(C(F)(F)F)n[nH]1)N1CCCC1)c1ccc(C(F)(F)F)cc1 [Compound A-532] | > 10 | –
47 | < 10 | CC(C)NC(=NC(=O)c1ccc(Cl)c(F)c1)Nc1cc(-c2ccc(Cl)cc2)n[nH]1 [Compound A-383] | < 10 | –
48 | < 10 | O=C(/N=C(\Nc1cc(C(F)(F)F)[nH]n1)NC1CCC(F)(F)CC1)c1ccc(C(F)(F)F)cc1 [Compound A-561] | – | < 10
49 | < 10 | CC(CC#N)NC(=NC(=O)c1ccc(F)cc1)Nc1cc(-c2ccc(F)cc2)n[nH]1 (centres unmarked) [Compound A-490] | < 10 | –
50 | < 10 | COc1cccc(CN/C(=N/C(=O)c2cc(F)c(F)c(F)c2)Nc2cc(-c3ccc(F)cc3)[nH]n2)c1 [Compound A-396] | – | < 10
51 | < 10 | COc1ccc(-c2cc(N/C(=N\C(=O)c3ccc(C(F)(F)F)cc3)NC3CCCC3)[nH]n2)cc1F [Compound A-574] | – | > 10
52 | < 10 | COc1ccc(-c2cc(N/C(=N\C(=O)c3ccc(C(F)(F)F)cc3)Nc3cc(F)cc(Cl)c3)[nH]n2)cc1 [Compound A-481] | – | > 10
53 | < 10 | Cc1ccc(C(=O)/N=C(\Nc2cc(-c3ccc(F)cc3)[nH]n2)NC(C)(C)C)cc1 [Compound A-550] | – | < 10
54 | < 10 | CC(C)(C)N/C(=N/C(=O)c1ccc(F)cc1F)Nc1cc(-c2ccc(F)cc2)n[nH]1 [Compound A-489] | – | < 10
55 | < 10 | O=C(/N=C(\Nc1cc(-c2ccc(F)cc2)n[nH]1)NC1CCC(F)(F)CC1)c1ccc(F)cc1 [Compound A-501] | – | < 10
56 | < 10 | O=C(N=C(NCc1ccc(F)cc1Cl)Nc1cc(-c2ccc(F)cc2)n[nH]1)c1ccc(F)c(F)c1 [Compound A-440] | < 10 | –
57 | < 10 | COC[C@H](C)N/C(=N/C(=O)c1cccc(C#N)c1)Nc1cc(-c2ccc(F)cc2)[nH]n1 [Compound A-526] | – | > 10
58 | < 10 | COc1ccc(-c2cc(N/C(=N\C(=O)c3ccc(F)c(F)c3)Nc3cc(F)cc(Cl)c3)[nH]n2)cc1 [Compound A-480] | – | > 10
59 | < 10 | O=C(/N=C(/NCc1ccc(F)cc1Cl)Nc1cc(-c2ccc(F)cc2)n[nH]1)c1cccc(F)c1 [Compound A-457] | – | < 10
60 | > 10 | CC(=O)Nc1cc(C(=O)N=C(Nc2cc(-c3ccc(F)cc3)[nH]n2)NC(C)(C)C)ccn1 [Compound A-485] | > 10 | –
61 | < 10 | Cc1ccc(CN/C(=N/C(=O)c2ccc(F)cc2)Nc2cc(C(F)(F)F)[nH]n2)o1 [Compound A-414] | – | < 10
